Results as given in article PMC6331991, “Anemarrhena asphodeloides Non-Steroidal Saponin Components Alter the Pharmacokinetic Profile of Its Steroidal Saponins in Rat” (Molecules, 2015).
Read-outs that look alike come from different tables or passages of the source.

Assays:
[1] = Pharmacokinetic study of four steroidal saponins in rat plasma after oral administration of A. asphodeloides fractions (UPLC-MS/MS); assay type: in vivo, Sprague-Dawley rats; settings: for AUC(0-t) / half-life / Tmax / Cmax: male, Sprague-Dawley; for AUC(0-t) / half-life / Tmax / Cmax / T1/2: rat plasma, single oral dose, n = 6, mean ± S.D.; for AUC(0-t): read-out: AUC0–t; for half-life: read-out: T1/2 (converted); for Tmax: read-out: Tmax; for Cmax: read-out: Cmax; for shape of plasma concentration-time curve: after oral administration
Protocol: The dried A. asphodeloides were chopped into slices before using. The A. asphodeloides was immersed in water (1:10, w/v) and extracted twice by refluxing for 2 h. After filtration, the supernatant was condensed to a certain volume under reduced pressure, and 95% ethanol was added to the water extract filtrates until the concentration of ethanol was 80%. The precipitate was filtered as the macromolecular fraction (MF), the ethanol supernatant was concentrated under reduced pressure to a certain volume under vacuum and then purified by gradient elution with water, 40% ethanol and 70% ethanol from an AB-8 MARO porous resin column and then the water-eluted fraction was combined with the 40% ethanol-eluted fraction as the small molecule fraction (SF) and the 70% ethanol eluted fraction was the A. asphodeloides saponins extract (ASE). All of the residues were lyophilized and the resulting dry powder was stored at 4 °C before usage. The contents of four steroidal saponins in ASE dry powder were measured quantitatively by the external standard method using the same chromatography conditions as described above. The contents of timosaponin BII, anemarsaponin BIII, timosaponin AIII and timosaponin E1 in ASE were 429.12, 89.81, 59.13 and 41.25 mg/g, respectively.
Frozen plasma samples were unfrozen at room temperature and treated as follows: to each 200 µL plasma sample, 20 µL of IS (920 ng/mL ginsenoside Re) working solution and 600 µL of acetonitrile were added. After vortexing for 2 min and centrifugation at 13,000 rpm at 4 °C for 10 min the supernatant was transferred into a new tube and evaporated to dryness in a rotary evaporator at 39 °C and the residue was reconstituted in 100 µL of 0.1% formic acid–acetonitrile (50:50, v/v), vortexed for 2 min and centrifuged at 13,000 rpm at 4 °C for 10 min. The supernatant was transferred to an autosampler vial and an aliquot of 2 μL was injected onto the UPLC-MS/MS system for analysis.
Male Sprague-Dawley rats (250–280 g) were obtained from the Shanghai Slac Laboratory Animal Co., Ltd. (Shanghai, China). All animals were kept in an environmentally controlled breeding room (temperature: 20–25 °C, humidity: 55%–65%) for 1 week before the experiments started. Animal welfare and experimental procedures were strictly in accordance with the ethical norms of the Nanjing University of Chinese Medicine. All rats were fasted for 12 h with free access to water prior to the experiments, twenty-four rats were divided into four groups and then were given a single dose of ASE, ASE-SF, AS-MF, AS-M-SF. A 40 mg/mL ASE (the amount of MF, SF added to group AS-MF, ASE-SF, AS-M-SF were based on the proportion extracted from A. asphodeloides) aqueous solution in each group was administered orally at a dose of 400 mg/kg, which contained 171.61, 35.92, 23.62, 16.53 mg/kg of timosaponin BII, anemarsaponin BIII, timosaponin AIII, timosaponin E1, respectively.
About 400 μL blood samples were collected from venipuncture before intragastric gavage and at 0.083, 0.25, 0.5, 1, 1.5, 2, 4, 6, 8, 10, 12, 24 h after a single oral administration. The blood samples were immediately transferred to heparinized tubes and centrifuged at 3000 rpm for 10 min, and the supernatant was transferred into 2.0 mL Eppendorf tubes and stored at −80 °C prior to analysis. Blank plasma was obtained from the rat without oral administration and was used to investigate the assay development and validation.
To calculate the pharmacokinetic parameters of analytes in different group, concentrations–time dada were analyzed by DAS 3.2 software (Mathematical Pharmacology Professional Committee of China, Shanghai, China, 2011). Data were measured as the mean ± standard deviation (S.D.) with triplicate measurements. The identification of significances between different groups was executed with Student’s t-test. A p value < 0.05 was considered statistically significant.

[2] = Stability of analytes in rat plasma QC samples (auto-sampler, long-term, freeze-thaw); assay type: in vitro ADME; settings: n = 6; for Stability, Auto-Sampler for 24 h, Mean: 4 °C; for Stability, Freeze–Thaw Cycles, Mean: three cycles −80 °C to room temperature
Protocol: Stock solutions were separately prepared by dissolving the four accurately weighed standard reference compounds in a mixture of 50% acetonitrile. Then, the four stock solutions were mixed and diluted with 50% acetonitrile to prepare a final mixed standard solution containing 650.00 ng/mL of timosaponin BII, 620.00 ng/mL of anemarsaponin BIII, 485.00 ng/mL of timosaponin AIII, 530.00 ng/mL of timosaponin E1. A series of working solutions were freshly prepared by diluting mixed standard solution with 50% acetonitrile to the appropriate concentration. The internal standard solution of ginsenoside Re was prepared to the concentration of 920 ng/mL in 50% acetonitrile. For the validation of the method, three concentrations of standard solution containing timosaponin BII (5.20, 52.00 and 520 ng/mL), anemarsaponin BIII (4.96, 49.60 and 496.00 ng/mL), timosaponin AIII (3.88, 38.8 and 388 ng/mL), timosaponin E1 (4.24, 42.40 and 424.00 ng/mL) were used for preparing the QC plasma samples. The stability experiments were measured by analyzing replicates (n = 6) of three QC samples during the sample storing and processing procedures. For all stability experiments, freshly prepared stability testing QC samples were evaluated by using freshly prepared standard curve for the measurement. The post-preparation stability was tested by determined of the extracted QC samples stored in the auto-sampler (4 °C) for 24 h. The freeze and thaw stability were determined after three freeze-thaw cycles (−80 °C to room temperature). Long-term stability in rat plasma stored at −80 °C was studied for a period of one month.

[3] = rat, plasma, po, 400 mg/kg, Group ASE (ASE 400 mg/kg)
[4] = rat, plasma, po, 400 mg/kg, Group ASE-MF (ASE 400 mg/kg plus macromolecular fraction)
[5] = rat, plasma, po, 400 mg/kg, Group ASE-MF
[6] = rat, plasma, po, 400 mg/kg, Group ASE-SF (ASE 400 mg/kg plus small molecule fraction)
[7] = rat, plasma, po, 400 mg/kg, Group ASE-SF
[8] = high concentration (388.00–520.00 ng/mL)
[9] = low concentration (3.88–5.20 ng/mL)
[10] = middle concentration (38.80–52.00 ng/mL)
[11] = rat, plasma, po, 400 mg/kg, Group ASE-SF-MF

SMILES	AUC(0-t) [1, 3]	Cmax [1, 3]	half-life [1, 3]	Tmax [1, 3]	Cmax [1, 4]	AUC(0-t) [1, 5]	half-life [1, 5]	Tmax [1, 5]	Cmax [1, 6]	half-life [1, 7]	Tmax [1, 7]	T1/2 ([1]; Group ASE-SF)	shape of plasma concentration-time curve ([1]; rat)	Stability, Auto-Sampler for 24 h, Mean [2, 8]	Stability, at −80 °C for 1 Month, Mean [2, 8]	Stability, Freeze–Thaw Cycles, Mean [2, 8]	Stability, Auto-Sampler for 24 h, Mean [2, 9]	Stability, at −80 °C for 1 Month, Mean [2, 9]	Stability, Freeze–Thaw Cycles, Mean [2, 9]	Stability, Auto-Sampler for 24 h, Mean [2, 10]	also measured
C[C@@H](CC[C@@]1(O)O[C@H]2C[C@H]3[C@@H]4CC[C@@H]5C[C@@H](O[C@@H]6O[C@H](CO)[C@H](O)[C@H](O)[C@H]6O[C@@H]6O[C@H](CO)[C@@H](O)[C@H](O)[C@H]6O)CC[C@]5(C)[C@H]4CC[C@]3(C)[C@H]2[C@@H]1C)CO[C@@H]1O[C@H](CO)[C@@H](O)[C@H](O)[C@H]1O [Timosaponin BII, timosaponin BII]	2040 ± 146 ng·h/mL	271 ± 22.5 ng/mL	3.21 ± 1.17 h	3.75 ± 1.78 h	287 ± 11.9 ng/mL	1980 ± 104 ng·h/mL	3.34 ± 1.19 h	3.41 ± 1.43 h	415 ± 41.8 ng/mL	3.63 ± 1.28 h	5 ± 1.67 h	no obvious difference	double peak	88.3%	95.4%	91.4%	95.3%	94.7%	98.0%	98.1%	AUC(0-t) ([1]; 400 mg/kg, Group ASE-SF-MF): 3310 ± 575 ng·h/mL; half-life ([1]; 400 mg/kg, Group ASE-SF-MF): 5.18 ± 1.88 h; Tmax ([1]; 400 mg/kg, Group ASE-SF-MF): 3.17 ± 2.21 h; AUC(0-t) [1, 7]: 3090 ± 628 ng·h/mL; Cmax ([1]; Group ASE-SF-MF (ASE 400 mg/kg plus small molecule and macromolecular fraction)): 400 ± 39.6 ng/mL; Stability, at −80 °C for 1 Month, Mean [2, 10]: 98.2%; Stability, Freeze–Thaw Cycles, Mean [2, 10]: 95.5%
C[C@H]1CC[C@@]2(OC1)O[C@H]1C[C@H]3[C@@H]4CC[C@@H]5C[C@@H](O[C@@H]6O[C@H](CO)[C@H](O)[C@H](O)[C@H]6O[C@@H]6O[C@H](CO)[C@@H](O)[C@H](O)[C@H]6O)CC[C@]5(C)[C@H]4CC[C@]3(C)[C@H]1[C@@H]2C [Timosaponin AIII, timosaponin AIII]	644 ± 59 ng·h/mL	65.2 ± 4.16 ng/mL	5.31 ± 3.03 h	5.66 ± 0.81 h	63.6 ± 3.16 ng/mL	688 ± 46.3 ng·h/mL	6.95 ± 6.23 h	4.33 ± 0.81 h	69.8 ± 2.86 ng/mL	8.2 ± 2.74 h	5.33 ± 1.03 h	significantly increased	single peak	96.4%	99.0%	102.8%	100.9%	100.4%	102.2%	97.0%	Cmax ([1]; rat, plasma, po, 400 mg/kg, Group ASE-SF-MF (ASE 400 mg/kg plus small molecule and macromolecular fraction)): 74 ± 6.18 ng/mL; AUC(0-t) [1, 11]: 890 ± 57.2 ng·h/mL; half-life [1, 11]: 8.94 ± 1.24 h; Tmax [1, 11]: 5.66 ± 0.81 h; Stability, at −80 °C for 1 Month, Mean [2, 10]: 101.7%; Stability, Freeze–Thaw Cycles, Mean [2, 10]: 96.2%
